From patent US8163766B2, “Beta-secretase modulators and methods of use” (Amgen Inc., priority 2005, dated 2012)

test system: Aβ 40 in conditioned media of cells stably expressing Amyloid Precursor Protein (APP); experiment: BACE Cell-Based Assay (Aβ40 in conditioned medium, sandwich ELISA); conditions: 24 hours of incubation with the test compounds, Aβ 40 by sandwich ELISA, read-out: IC50 values in the cell-based assay (inhibition of Aβ 40)
Protocol: The cell-based assay measures inhibition or reduction of Aβ40 in conditioned medium of test compound treated cells, which express amyloid precursor protein.
Cells stably expressing Amyloid Precursor Protein (APP) were plated at a density of 40K cells/well in 96 well plates (Costar). The cells were cultivated for 24 h at 37° C. and 5% CO2 in DMEM supplemented with 10% FBS. The test compounds were then added to cells in 10-point dose response concentrations with the starting concentration being either 100 μM or 10 μM. The compounds were diluted from stock solutions in DMSO and the final DMSO concentration of the test compounds on cells was 0.1%. After 24 hours of incubation with the test compounds the supernatant conditioned media was collected and the Aβ 40 levels were determined using a sandwich ELISA. The IC50 of the compound was calculated from the percent of control or percent inhibition of Aβ 40 as a function of the concentration of the test compound.
The sandwich ELISA to detect Aβ 40 was performed in 96 well microtiter plates, which were pre-treated with goat anti-rabbit IgG (Pierce). The capture and detecting antibody pair that were used to detect Aβ 40 from cell supernatants were affinity purified pAb40 (Biosource) and biotinylated 6E10 (Signet Labs Inc.), respectively. The optimal concentration for the pAb40 antibody was 3 μg/ml in Superblock/TBS (Pierce) that was supplemented with 0.05% Tween 20 (Sigma). Optimal concentration for the detection antibody 6E10-biotinylated was […] in Superblock/TBS (Pierce) that had been supplemented with 2% normal goat serum and 2% normal mouse serum.
Cellular supernatants were incubated with the capture antibody for 3 h at 4° C., followed by 3 wash steps in TBS-tween (0.05%). The detecting antibody incubation was for 2 h at 4° C., again followed by the wash steps as described previously. The final readout of the ELISA is Time-Resolved Fluorescence (counts per minute) using Delfia reagents Streptavidin-Europium and Enhancement solutions (Perkin Elmer) and the Victor 2 multilabel counter (Perkin Elmer).

IC50, ≤ 5 µM:
CCc1ccc2c(c1)[C@@H](NC[C@@H](O)[C@H](Cc1ccccc1)NC(=O)c1cc(-c3ccccc3F)c(=O)n3c1CCC3)CC1(CCC1)O2 [Example 126, N-((2S,3R)-4-((S)-6-Ethyl-2,2-spirocyclobutylchroman-4-ylamino)3-hydroxy-1-phenylbutan-2-yl)-6-(2-fluorophenyl)-5-oxo-1,2,3,5-tetrahydroindolizine-8-carboxamide]
CCc1ccc2c(c1)[C@@H](NC[C@@H](O)[C@H](Cc1ccccc1)NC(=O)c1cc(-c3ccccc3F)c(=O)n3c1CCC3)CC1(CCCC1)O2 [Example 107, N-((2S,3R)-4-((8)-6-Ethyl-2,2-spirocyclopentylchroman-4-ylamino)3-hydroxy-1-phenylbutan-2-yl)-6-(2-fluorophenyl)-5-oxo-1,2,3,5-tetrahydroindolizine-8-carboxamide]
Cc1cccc(C(=O)N2CCO[C@@H](C(=O)N[C@@H](Cc3ccccc3)[C@H](O)CN[C@H]3CC(C)(C)Cc4ncc(C)cc43)C2)c1 [Example 499, (2R)-N-((1S,2R)-2-hydroxy-1-(phenylmethyl)-3-(((5S)-3,7,7-trimethyl-5,6,7,8-tetrahydro-5-quinolinyl)amino)propyl)-4-((3-methylphenyl)carbonyl)-2-morpholinecarboxamide]
CCc1ccc2c(c1)[C@@H](NC[C@@H](O)[C@H](Cc1ccccc1)NC(=O)C1CN(C3CCCC3)c3ccccc3O1)CC1(CCCC1)O2 (stereo partly drawn) [Example 43, 4-Cyclopentyl-N-((2S,3R)-4-((S)-6-ethyl-2,2-spirocyclopentylchroman-4-ylamino)-3-hydroxy-1-phenylbutan-2-yl)-3,4-dihydro-2H-benzo[b][1,4]oxazine-2-carboxamide]
CCc1ccc2c(c1)[C@@H](NC[C@@H](O)[C@H](Cc1csc(C)n1)NC(=O)c1cc(-c3ccccn3)c(=O)n(C3CCCC3)c1)CC1(CCC1)O2 [Example 500, 1′-cyclopentyl-N-((1S,2R)-3-(((4S)-6-ethyl-3,4-dihydrospiro[chromene-2,1′-cyclobutan]-4-yl)amino)-2-hydroxy-1-((2-methyl-1,3-thiazol-4-yl)methyl)propyl)-2′-oxo-1′,2′-dihydro-2,3′-bipyridine-5′-carboxamide]
Cc1ccc2c(c1)[C@@H](NC[C@@H](O)[C@H](Cc1ccccc1)NC(=O)c1ccc(=O)n(C3CCCC3)c1)CC1(CCCC1)O2 [Example 132, 1-cyclopentyl-N-((2S,3R)-4-((S)-2,2-spirocyclopentyl-6-methylchroman-4-ylamino)-3-hydroxy-1-phenylbutan-2-yl)-6-oxo-1,6-dihydropyridine-3-carboxamide]
CC(C)c1ccc2c(c1)[C@@H](NC[C@@H](O)[C@H](Cc1ccccc1)NC(=O)C1CCCN(c3ccccn3)C1)CC1(CCCC1)O2 (stereo partly drawn) [Example 32, N-((2S,3R)-3-hydroxy-4-((S)-6-isopropyl-2,2-spirocyclopentylchroman-4-ylamino)-1-phenylbutan-2-yl)-1-(pyridin-2-yl)piperidine-3-carboxamide]
CCc1ccc2c(c1)C(NC[C@@H](O)[C@H](Cc1ccccc1)NC(=O)c1cc(C3CCCO3)c(=O)n(C3CCCC3)c1)CC1(CCCC1)O2 (stereo partly drawn) [Example 24, 1-cyclopentyl-N-((2S,3R)-4-(6-ethyl-2,2-spirocyclopentylchroman-4-ylamino)-3-hydrodroxy-1-phenylbutan-2-yl)-6-OXO-5-(tetrahydrofuran-2-yl)-1,6-dihydropyridine-3-carboxamide]
O=C(N[C@@H](Cc1ccc(F)cc1)[C@H](O)CN[C@H]1CC2(CCC2)Oc2cc(F)c(-n3cccn3)cc21)C1CCC1 [Example 473, N-((1S,2R)-1-((4-fluorophenyl)methyl)-3-(((4S)-7-fluoro-6-(1H-pyrazol-1-yl)-3,4-dihydrospiro[chromene-2,1′-cyclobutan]-4-yl)amino)-2-hydroxypropyl)cyclobutanecarboxamide]
